pIC50: −log10 of the molar value. Where two headings read alike, the source gives them in different places.
How the values were obtained:
KDM4C = biological target: T1, KDM4C (Homo sapiens, UniProt Q9H3R0); assay: KDM4C AlphaScreen assay; format: biochemical; settings: AlphaScreen; full length KDM4C 0.2 nM; biotinylated H3K9Me3 peptide 3 nM; 30 minutes at room temperature
T1 construct: Full length of KDM5B and KDM4C protein were purchased from Active Motif; purchased Active Motif 31858
T1 sequence (Q9H3R0 1-1056): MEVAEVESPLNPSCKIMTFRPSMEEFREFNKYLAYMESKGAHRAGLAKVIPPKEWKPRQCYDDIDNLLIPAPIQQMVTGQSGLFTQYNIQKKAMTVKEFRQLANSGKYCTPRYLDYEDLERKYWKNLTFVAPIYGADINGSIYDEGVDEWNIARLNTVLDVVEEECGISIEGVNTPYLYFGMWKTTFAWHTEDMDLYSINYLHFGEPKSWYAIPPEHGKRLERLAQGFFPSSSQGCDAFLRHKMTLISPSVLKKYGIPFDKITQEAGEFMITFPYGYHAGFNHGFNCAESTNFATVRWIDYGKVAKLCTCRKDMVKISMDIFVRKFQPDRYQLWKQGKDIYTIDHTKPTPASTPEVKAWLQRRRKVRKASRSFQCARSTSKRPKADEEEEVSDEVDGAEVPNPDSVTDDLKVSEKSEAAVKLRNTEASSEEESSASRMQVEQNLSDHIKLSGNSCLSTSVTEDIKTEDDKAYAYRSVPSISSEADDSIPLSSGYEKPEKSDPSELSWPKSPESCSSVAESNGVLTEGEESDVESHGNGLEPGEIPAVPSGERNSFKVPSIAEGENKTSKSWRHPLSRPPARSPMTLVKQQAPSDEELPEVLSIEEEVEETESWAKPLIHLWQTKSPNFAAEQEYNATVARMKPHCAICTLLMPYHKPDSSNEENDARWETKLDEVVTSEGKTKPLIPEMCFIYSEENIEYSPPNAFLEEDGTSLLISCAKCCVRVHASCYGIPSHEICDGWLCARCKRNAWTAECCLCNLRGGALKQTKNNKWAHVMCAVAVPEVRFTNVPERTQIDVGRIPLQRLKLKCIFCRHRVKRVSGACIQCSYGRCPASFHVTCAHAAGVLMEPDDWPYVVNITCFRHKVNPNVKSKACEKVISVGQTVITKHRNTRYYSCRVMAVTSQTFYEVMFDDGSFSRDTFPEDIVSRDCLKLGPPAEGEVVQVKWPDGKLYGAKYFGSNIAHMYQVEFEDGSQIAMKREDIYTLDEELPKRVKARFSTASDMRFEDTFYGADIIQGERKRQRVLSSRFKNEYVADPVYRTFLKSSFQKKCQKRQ
Experimental: (§1) KDM4C and KDM5B AlphaScreen Assay Material and Method
(§2) Compounds disclosed herein were (and can be) screened using the following assay.
Peptides used in all experiments were purchased from Anaspe. Full length of KDM5B and KDM4C protein were purchased from Active Motif: KDM5B (cat#31832) and KDM4C (Cat #31858). Final concentration of KDM5B and KDM4C used in the assay were 0.5 nM and 0.2 nM. Final concentration of peptides for 5B and 4C used in the assay were 3 nM.
AlphaScreen assays was conducted as following protocol: buffer used to make compound plate or DMSO is composed of 50 mM HEPES pH 7.4, 0.003% Tween-20; buffer used to dilute enzyme is composed of 50 mM HEPES pH 7.4, 0.003% Tween-20, 0.01% BSA, 500 μM TCEP; and buffer used to dilute the substrate is composed of 50 mM HEPES pH 7.4, 0.003% Tween-20, (NH4)2Fe(SO4)2 15 μM, alpha-ketoglutaric acid 4 μM and L-ascorbic acid 100 μM. 4 μL of KDM5B or KDM4C protein were added to 384-well OptiPlate by using multiflow, followed by 4 μl of either buffer or compound. Plates were sealed, spun down and incubated at RT for 15 min. 4 μl of biotinylated peptide was added to the plate, the plate was incubated at room temperature for 25 minutes (KDM5B) and 30 minutes (KDM4C) after sealed and spun down. Streptavidin donor beads and acceptor beads were diluted and mixed in the detection buffer with 7.5 mM EDTA, followed by adding 8 μl of acceptor and donor beads mix to the plate, before the plate was sealed and incubated at room temperature for 3 h or overnight at dark. The plate was read on Envision plate reader (PerkinElmer) using Alphascreen protocol. IC50s were calculated in GraphPad Prism 6.

KDM5B = biological target: T2, KDM5B (Homo sapiens, UniProt Q9UGL1); assay: biochemical
T2 construct: Full length of KDM5B and KDM4C protein were purchased from Active Motif; purchased Active Motif 31832
Experimental: as §1, §2
Peptides used in all experiments were purchased from Anaspe. […] Final concentration of KDM5B and KDM4C used in the assay were 0.5 nM and 0.2 nM. Final concentration of peptides for 5B and 4C used in the assay were 3 nM.
4 μL of KDM5B or KDM4C protein were added to 384-well OptiPlate by using multiflow, followed by 4 μl of either buffer or compound. Plates were sealed, spun down and incubated at RT for 15 min. 4 μl of biotinylated peptide was added to the plate, the plate was incubated at room temperature for 25 minutes (KDM5B) and 30 minutes (KDM4C) after sealed and spun down. Streptavidin donor beads and acceptor beads were diluted and mixed in the detection buffer with 7.5 mM EDTA, followed by adding 8 μl of acceptor and donor beads mix to the plate, before the plate was sealed and incubated at room temperature for 3 h or overnight at dark. The plate was read on Envision plate reader (PerkinElmer) using Alphascreen protocol. IC50s were calculated in GraphPad Prism 6.

T2 sequence (Q9UGL1 whole entry): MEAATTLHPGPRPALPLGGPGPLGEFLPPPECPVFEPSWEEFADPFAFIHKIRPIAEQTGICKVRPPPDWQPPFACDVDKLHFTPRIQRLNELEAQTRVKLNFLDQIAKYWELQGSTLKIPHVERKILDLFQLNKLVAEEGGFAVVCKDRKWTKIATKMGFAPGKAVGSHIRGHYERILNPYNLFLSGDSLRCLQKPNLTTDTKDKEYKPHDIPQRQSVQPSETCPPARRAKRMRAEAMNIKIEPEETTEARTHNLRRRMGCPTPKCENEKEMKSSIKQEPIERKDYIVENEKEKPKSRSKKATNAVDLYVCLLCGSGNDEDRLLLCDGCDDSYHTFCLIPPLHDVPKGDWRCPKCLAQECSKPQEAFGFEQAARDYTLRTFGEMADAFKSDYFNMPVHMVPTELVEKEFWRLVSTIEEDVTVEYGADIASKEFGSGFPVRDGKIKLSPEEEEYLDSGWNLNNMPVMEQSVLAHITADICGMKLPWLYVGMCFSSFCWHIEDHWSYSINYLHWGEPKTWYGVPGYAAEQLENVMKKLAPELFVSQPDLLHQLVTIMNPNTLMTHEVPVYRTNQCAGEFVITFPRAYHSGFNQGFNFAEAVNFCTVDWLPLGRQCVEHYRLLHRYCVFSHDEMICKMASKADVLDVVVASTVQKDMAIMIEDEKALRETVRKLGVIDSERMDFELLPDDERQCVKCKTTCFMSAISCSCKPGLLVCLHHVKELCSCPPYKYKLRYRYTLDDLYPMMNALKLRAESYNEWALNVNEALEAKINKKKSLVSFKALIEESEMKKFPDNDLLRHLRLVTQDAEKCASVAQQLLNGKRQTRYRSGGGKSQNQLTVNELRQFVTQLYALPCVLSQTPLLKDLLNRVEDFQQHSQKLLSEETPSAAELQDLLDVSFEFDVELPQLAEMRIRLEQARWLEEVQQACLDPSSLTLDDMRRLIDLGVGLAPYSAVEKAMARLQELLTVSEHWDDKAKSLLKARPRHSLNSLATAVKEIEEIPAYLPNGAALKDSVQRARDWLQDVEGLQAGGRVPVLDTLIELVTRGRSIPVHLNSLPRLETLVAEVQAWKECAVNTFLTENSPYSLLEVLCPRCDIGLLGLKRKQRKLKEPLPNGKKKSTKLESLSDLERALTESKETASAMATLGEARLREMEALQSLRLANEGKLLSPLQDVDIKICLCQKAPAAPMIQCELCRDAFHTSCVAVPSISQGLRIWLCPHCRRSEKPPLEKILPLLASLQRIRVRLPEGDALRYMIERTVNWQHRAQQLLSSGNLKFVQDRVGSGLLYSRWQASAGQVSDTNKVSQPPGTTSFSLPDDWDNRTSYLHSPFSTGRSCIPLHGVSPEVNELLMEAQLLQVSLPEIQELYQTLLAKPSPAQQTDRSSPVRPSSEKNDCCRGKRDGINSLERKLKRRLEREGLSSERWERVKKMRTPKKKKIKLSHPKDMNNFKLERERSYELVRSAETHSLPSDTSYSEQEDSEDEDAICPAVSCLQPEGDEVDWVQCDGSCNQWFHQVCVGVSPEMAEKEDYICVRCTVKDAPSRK

SMILES	pIC50 (KDM4C)	pIC50 (KDM5B)	pIC50 (KDM5B; AlphaScreen, full length KDM5B 0.5 nM, biotinylated H3K4Me3 peptide 3 nM, 25 minutes at room temperature, read-out: KDM5B (IC50))
CC(C)c1c(O)nc(-n2ccnc2)nc1-c1cnn(C(C)C)c1 [Example 1, 2-(1H-imidazol-1-yl)-5-isopropyl-6-(1-isopropyl-1H-pyrazol-4-yl)pyrimidin-4-ol]	5.98	7.92	–
CC(C)c1c(O)nc(-n2ccnc2-c2ccccn2)nc1Cl [Example 2, 6-Chloro-5-(propan-2-yl)-2-[2-(pyridin-2-yl)-1H-imidazol-1-yl]pyrimidin-4-ol]	5.41	6.64	–
CC(C)c1c(O)nc(-n2ccnc2-c2ccccn2)nc1-c1cnn(C(C)C)c1 [Example 3, 5-(Propan-2-yl)-6-[1-(propan-2-yl)-1H-pyrazol-4-yl]-2-[2-(pyridin-2-yl)-1H-imidazol-1-yl]pyrimidin-4-ol]	5.01	6.43	–
Cc1nccn1-c1nc(O)c(C(C)C)c(-c2cnn(C(C)C)c2)n1 [Example 4, 5-isopropyl-6-(1-isopropyl-1H-pyrazol-4-yl)-2-(2-methyl-1H-imidazol-1-yl)pyrimidin-4-ol]	5.35	6.90	–
CC(C)c1c(O)nc(-n2ccnc2)nc1-c1cnn(CC(=O)O)c1 [Example 5, 2-(4-(6-Hydroxy-2-(1H-imidazol-1-yl)-5-isopropylpyrimidin-4-yl)-1H-pyrazol-1-yl)acetic acid]	5.13	6.93	–
CC(C)c1c(O)nc(-n2ccnc2)nc1-c1cnn(CC(=O)NCCN2CCCC2)c1 [Example 6, 2-(4-(6-Hydroxy-2-(1H-imidazol-1-yl)-5-isopropylpyrimidin-4-yl)-1H-pyrazol-1-yl)-N-(2-(pyrrolidin-1-yl)ethyl)acetamide]	6.67	8.40	–
CC(C)c1c(O)nc(-n2ccnc2)nc1-c1cnn(CC(N)=O)c1 [Example 7, 2-(4-(6-Hydroxy-2-(1H-imidazol-1-yl)-5-isopropylpyrimidin-4-yl)-1H-pyrazol-1-yl)-acetamide]	5.94	7.96	–
CC(C)c1c(O)nc(-n2ccnc2)nc1-c1ccc(C(=O)NCCN(C)C)nc1 [Example 8, N-(2-(dimethylamino)ethyl)-5-(6-hydroxy-2-(1H-imidazol-1-yl)-5-isopropylpyrimidin-4-yl)-picolinamide]	6.12	8.10	–
CC(C)c1c(O)nc(-n2ccnc2)nc1-c1ccc(C(N)=O)nc1 [Example 9, 5-(6-hydroxy-2-(1H-imidazol-1-yl)-5-isopropylpyrimidin-4-yl)picolinamide]	5.62	–	7.89
CC(C)c1c(O)nc(-n2ccnc2)nc1C#Cc1cccnc1 [Example 10a, 2-(1H-imidazol-1-yl)-5-(propan-2-yl)-6-[2-(pyridin-3-yl)ethynyl]pyrimidin-4-ol]	6.04	7.96	–
CC(C)c1c(O)nc(-n2ccnc2)nc1CCc1cccnc1 [Example 10b, 2-(1H-imidazol-1-yl)-5-(propan-2-yl)-6-[2-(pyridin-3-yl)ethyl]pyrimidin-4-ol]	5.83	7.96	–
CC(C)c1c(O)nc(-n2ccnc2)nc1OCCC1CCN(C)CC1 [Example 11, 2-(1H-imidazol-1-yl)-6-[2-(1-methylpiperidin-4-yl)ethoxy]-5-(propan-2-yl)pyrimidin-4-ol]	5.92	8.15	–
COc1nc(-n2ccnc2)nc(O)c1C(C)C [Example 12, 2-(1H-Imidazol-1-yl)-5-isopropyl-6-methoxypyrimidin-4-ol]	5.84	6.97	–
CC(C)c1c(O)nc(-n2ccnc2)nc1OCCC1CCN(CCCC(F)(F)F)CC1 [Example 13, 2-(1H-imidazol-1-yl)-5-(propan-2-yl)-6-{2-[1-(4,4,4-trifluorobutyl)piperidin-4-yl]ethoxy}pyrimidin-4-ol]	5.94	7.92	–
CC(C)c1c(O)nc(-n2ccnc2)nc1OCCC1CCN(C(=O)CCO)CC1 [Example 14, 3-hydroxy-1-[4-(2-{[6-hydroxy-2-(1H-imidazol-1-yl)-5-(propan-2-yl)pyrimidin-4-yl]oxy}-ethyl)piperidin-1-yl]propan-1-one]	5.70	7.49	–

— patent publication US20190135793A1, “HETEROCYCLIC INHIBITORS OF KDM5 FOR THE TREATMENT OF DISEASE” (Board of Regents, The University of Texas System, priority 2017, published 2019)
